Converted amounts (≈) assume the structure as drawn.
Assays:
Assay type in all cases: physicochemical
[1] = hygroscopicity comparison of polymorphs; details: anhydrous polymorphs compared
[2] = solubility in organic solvents
[3] = equilibrium solubility in aqueous media and simulated fluids
Description: Solubility studies were completed on the crystal form of selpercatinib described herein. Aqueous media covering the physiological pH range and three simulated fluids were used in these studies. A sufficient quantity of solid compound to saturate the volume of solvent is weighed into a vessel with approximately 1 mL of the specified solvent. […] After equilibration, samples are transferred to centrifuge filters (Durapore PVDF, 0.22 µm pore size) and centrifuged for 3 min at 10,000 rpm, while maintaining 37° C. A 100 µL aliquot is then withdrawn from each sample and diluted with 900 µL of 50:50 acetonitrile:water. The pH of the filtrate is recorded using calibrated scientific pH equipment. The solution concentration of the compound is determined by HPLC using an Agilent Zorbax Bonus-RP 4.6 × 75 mm, 3.5 µm column under the following conditions:; temperature is 30° C.; injection volume is 4 µL; ultraviolet detection at 238 nm; flow rate is 1.5 mL/min; autosampler temperature is 25° C.; mobile phase A is 0.1% trifluoroacetic acid in water; and mobile phase B is 0.1% trifluoroacetic acid in acetonitrile. The HPLC gradient is as follows: 0 min -95% A, 5% B; 9.5 min - 23% A, 77% B; 12.1 min - 23% A, 77% B; 13 min - 5% A, 95% B; 16 min - 5% A, 95% B; 16.1 min - 95% A, 5% B; 20 min - 95% A, 5% B. The table below (Table 3) details the equilibrium solubility data and equilibrium pH, reported as a mean of duplicate sample preparations. The solid form of the residual solid from the centrifuge sample is verified by XRPD, as noted in Table 5.

[4] = accelerated stability study of Form B (open dish, temperature/humidity; XRPD and HPLC); parameters: key to Crystal Form (XRPD vs unstressed time 0 sample): NC: No Change
Source text: Physical and chemical stability of Form B is an important attribute not only with respect to ensuring dissolution and solubility, but also for API and dosage form drug development and manufacturing operations (drying, storage, shipping transfers, etc.). Not all crystalline forms have the needed stability to enable drug development. A crystal form that is stable with respect to both temperature and humidity is desired. In order to assess the stability of the crystal form of selpercatinib an accelerated stability study iss carried out. Samples of Form B are weighed into 20 mL scintillation vials and placed (open dish) into bell jars with saturated salt solutions in ovens at the specified temperatures and for the specified times in Table 4. The Form B is analyzed before and after the accelerated stability study and is collected on a Bruker D8 Advance XRPD, equipped with a CuKα source (wavelength = 1.54056 Å) and a Linxeye detector, and operating at 40 kV and 40 mA, with a 0.2 mm divergence slit. Each sample is scanned from 4° to 30° 2θ in 0.02° steps at a rate of 0.2 seconds per step. Assay and impurities relative to the starting material are assessed using an Agilent 1260 HPLC System with Diode Array Detector. Samples are prepared at appropriate concentrations in 50/50 0.1%TFA in water/0.1%TFA in ACN and evaluated using the following HPLC conditions: Column Zorbax Bonus-RP, 75 × 4.6 mm i.d., 3.5 micron, mobile phase A is 0.1% TFA in water, mobile phase B is 0.1% TFA in ACN, gradient is 95% A at time 0, 23% A at time 9.5-12.1 minutes, 5% A at time 13-16 minutes, 95% A at time 16.1-20 minutes with a flow rate of 1.5 mL/min, a column temperature of 30° C., UV detection wavelength of 210 nm, and injection volume of 3 µL.

**Q.** With `COc1ccc(CN2C3CC2CN(c2ccc(-c4cc(OCC(C)(C)O)cn5ncc(C#N)c45)cn2)C3)cn1` [Form A, 6-(2-hydroxy-2-methylpropoxy)-4-(6-(6-((6-methoxypyridin-3-yl)methyl)-3,6-diazabicyclo[3.1.1]heptan-3-yl)pyridin-3-yl)pyrazolo[1,5-a]pyridine-3-carbonitrile] as the molecule, how does the hygroscopicity [1] read?
**A.** slightly more hygroscopic than Form B

**Q.** And the “solubility in many organic solvents, including MEK, acetone, and many alcohol based solvents” value ([2]; 25° C.)?
**A.** poor

**Q.** What about the solubility ([2]; dichloromethane, dimethylsulfoxide and THF, organic solvent or mixture, 25° C., called moderate solubility, read-out: solubility in dichloromethane (DCM), dimethylsulfoxide (DMSO) and THF) of the same molecule?
**A.** 3000 to 30000 µg/mL (≈ 5710 to 57100 µM)

**Q.** Which “Equilibrium pH” value ([3]; 0.01N HCl, 37° C., 24-hour equilibration) does the source give for `COc1ccc(CN2C3CC2CN(c2ccc(-c4cc(OCC(C)(C)O)cn5ncc(C#N)c45)cn2)C3)cn1` [Form B, 6-(2-hydroxy-2-methylpropoxy)-4-(6-(6-((6-methoxypyridin-3-yl)methyl)-3,6-diazabicyclo[3.1.1]heptan-3-yl)pyridin-3-yl)pyrazolo[1,5-a]pyridine-3-carbonitrile] here?
**A.** 3.634

**Q.** What about the “Equilibrium pH” value ([3]; 0.01 N NaOH, 37° C., 24-hour equilibration) of the same molecule?
**A.** 9.985

**Q.** And the “Equilibrium pH” value ([3]; 0.1N HCl, 21.5° C. (ambient))?
**A.** 1.297

**Q.** What about the “Equilibrium pH” value ([3]; FaSSIF, 37° C., 24-hour equilibration) of the same molecule?
**A.** 6.445

**Q.** And the “Equilibrium pH” value ([3]; FeSSIF, 37° C., 24-hour equilibration)?
**A.** 4.928

**Q.** And the “Equilibrium pH” value ([3]; SGF (simulated gastric fluid), 37° C., 24-hour equilibration)?
**A.** 2.644

**Q.** What about the “Equilibrium pH” value ([3]; Water, 37° C., 24-hour equilibration) of the same molecule?
**A.** 7.146

**Q.** What about the solubility at 24 h ([3]; aqueous buffer, thermodynamic from solid, 0.01 N NaOH, 37° C., 24-hour equilibration) of the same molecule?
**A.** 1.1 µg/mL (≈ 2.09 µM)

**Q.** And the solubility ([3]; aqueous media, 37 °C, thermodynamic from solid, indicated by the aqueous solubility results, read-out: intrinsic solubility)?
**A.** ~1 µg/mL (≈ 1.9 µM)

**Q.** And the solubility at 24 h ([3]; citrate/phosphate buffer pH 4.0, aqueous buffer, thermodynamic from solid, pH 4.0 Citrate/Phosphate, 37° C., 24-hour equilibration)?
**A.** 712 µg/mL (≈ 1350 µM)

**Q.** And the solubility at 24 h ([3]; pH 1.297, simulated gastric fluid, thermodynamic from solid, 0.1N HCl, measured at 21.5° C. (ambient), 24-hour equilibration)?
**A.** ≥ 10000 µg/mL

**Q.** And the solubility at 24 h ([3]; pH 2.644, thermodynamic from solid, SGF (simulated gastric fluid), 37° C., 24-hour equilibration, retained solids non-crystalline by XRPD)?
**A.** 1440 µg/mL (≈ 2740 µM)

**Q.** What about the solubility at 24 h ([3]; pH 3.634, simulated gastric fluid, thermodynamic from solid, 0.01N HCl, 37° C., 24-hour equilibration) of the same molecule?
**A.** 4770 µg/mL (≈ 9080 µM)

**Q.** What about the “Equilibrium pH” value ([3]; pH 4.0 Citrate/Phosphate, 37° C., 24-hour equilibration) of the same molecule?
**A.** 4.134

**Q.** And the “Equilibrium pH” value ([3]; pH 4.5 Acetate (USP), 37° C., 24-hour equilibration)?
**A.** 4.496

**Q.** And the solubility at 24 h ([3]; pH 4.5 acetate buffer (USP), aqueous buffer, thermodynamic from solid, pH 4.5 Acetate (USP), 37° C., 24-hour equilibration)?
**A.** 169 µg/mL (≈ 322 µM)

**Q.** And the “Equilibrium pH” value ([3]; pH 6.0 Phosphate (USP), 37° C., 24-hour equilibration)?
**A.** 6.027

**Q.** What about the solubility at 24 h ([3]; pH 6.0 phosphate buffer (USP), aqueous buffer, thermodynamic from solid, pH 6.0 Phosphate (USP), 37° C., 24-hour equilibration) of the same molecule?
**A.** 8.6 µg/mL (≈ 16.4 µM)

**Q.** And the solubility at 24 h ([3]; pH 7.146, thermodynamic from solid, Water, 37° C., 24-hour equilibration)?
**A.** 3.6 µg/mL (≈ 6.85 µM)

**Q.** And the “Equilibrium pH” value ([3]; pH 7.5 Phosphate (USP), 37° C., 24-hour equilibration)?
**A.** 7.526

**Q.** What about the solubility at 24 h ([3]; pH 7.5 phosphate buffer (USP), aqueous buffer, thermodynamic from solid, pH 7.5 Phosphate (USP), 37° C., 24-hour equilibration) of the same molecule?
**A.** 2.2 µg/mL (≈ 4.19 µM)

**Q.** And the solubility at 24 h ([3]; thermodynamic from solid, FaSSIF (fasted-state simulated intestinal fluid, pH 6.5), 37° C., 24-hour equilibration)?
**A.** 9.6 µg/mL (≈ 18.3 µM)

**Q.** And the solubility at 24 h ([3]; thermodynamic from solid, FeSSIF (fed-state simulated intestinal fluid, pH 5.0), 37° C., 24-hour equilibration)?
**A.** 228 µg/mL (≈ 433 µM)

**Q.** What about the “Assay (%) in comparison to the unstressed (time 0) sample” value (“Assay (%) in comparison” below) ([4]; 7 days, 40 °C, 11% RH) of the same molecule?
**A.** 99.2%

**Q.** What about the “Crystal Form (XRPD vs unstressed time 0 sample)” value ([4]; 7 days, 40 °C, 11% RH) of the same molecule?
**A.** NC

**Q.** What about the “Impurities (%)” value ([4]; 7 days, 40 °C, 11% RH) of the same molecule?
**A.** 0.10%

**Q.** What about the “Assay (%) in comparison” value ([4]; 7 days, 40 °C, 75% RH) of the same molecule?
**A.** 99.4%

**Q.** And the “Crystal Form (XRPD vs unstressed time 0 sample)” value ([4]; 7 days, 40 °C, 75% RH)?
**A.** NC

**Q.** And the “Impurities (%)” value ([4]; 7 days, 40 °C, 75% RH)?
**A.** 0.11%

**Q.** And the “Assay (%) in comparison” value ([4]; 7 days, 50 °C, 30% RH)?
**A.** 99.4%

**Q.** And the “Crystal Form (XRPD vs unstressed time 0 sample)” value ([4]; 7 days, 50 °C, 30% RH)?
**A.** NC

**Q.** What about the “Impurities (%)” value ([4]; 7 days, 50 °C, 30% RH) of the same molecule?
**A.** 0.09%

**Q.** What about the “Assay (%) in comparison” value ([4]; 7 days, 50 °C, 50% RH) of the same molecule?
**A.** 99.2%

**Q.** And the “Crystal Form (XRPD vs unstressed time 0 sample)” value ([4]; 7 days, 50 °C, 50% RH)?
**A.** NC

**Q.** What about the “Impurities (%)” value ([4]; 7 days, 50 °C, 50% RH) of the same molecule?
**A.** 0.10%

**Q.** And the “Assay (%) in comparison” value ([4]; 7 days, 70 °C, 11% RH)?
**A.** 100.7%

**Q.** And the “Crystal Form (XRPD vs unstressed time 0 sample)” value ([4]; 7 days, 70 °C, 11% RH)?
**A.** NC

**Q.** And the “Impurities (%)” value ([4]; 7 days, 70 °C, 11% RH)?
**A.** 0.09%

**Q.** And the “Assay (%) in comparison” value ([4]; 7 days, 70 °C, 75% RH)?
**A.** 100.3%

**Q.** What about the “Crystal Form (XRPD vs unstressed time 0 sample)” value ([4]; 7 days, 70 °C, 75% RH) of the same molecule?
**A.** NC

**Q.** And the “Impurities (%)” value ([4]; 7 days, 70 °C, 75% RH)?
**A.** 0.10%

**Q.** What about the “Assay (%) in comparison” value ([4]; 14 days, 40 °C, 11% RH) of the same molecule?
**A.** 99.9%

**Q.** And the “Crystal Form (XRPD vs unstressed time 0 sample)” value ([4]; 14 days, 40 °C, 11% RH)?
**A.** NC

**Q.** And the “Impurities (%)” value ([4]; 14 days, 40 °C, 11% RH)?
**A.** 0.09%

**Q.** What about the “Assay (%) in comparison” value ([4]; 14 days, 40 °C, 75% RH) of the same molecule?
**A.** 99.9%

**Q.** What about the “Crystal Form (XRPD vs unstressed time 0 sample)” value ([4]; 14 days, 40 °C, 75% RH) of the same molecule?
**A.** NC

**Q.** And the “Impurities (%)” value ([4]; 14 days, 40 °C, 75% RH)?
**A.** 0.10%

**Q.** What about the “Assay (%) in comparison” value ([4]; 14 days, 50 °C, 30% RH) of the same molecule?
**A.** 100.5%

**Q.** And the “Crystal Form (XRPD vs unstressed time 0 sample)” value ([4]; 14 days, 50 °C, 30% RH)?
**A.** NC

**Q.** What about the “Impurities (%)” value ([4]; 14 days, 50 °C, 30% RH) of the same molecule?
**A.** 0.09%

**Q.** What about the “Assay (%) in comparison” value ([4]; 14 days, 50 °C, 50% RH) of the same molecule?
**A.** 100.4%

**Q.** What about the “Crystal Form (XRPD vs unstressed time 0 sample)” value ([4]; 14 days, 50 °C, 50% RH) of the same molecule?
**A.** NC

**Q.** What about the “Impurities (%)” value ([4]; 14 days, 50 °C, 50% RH) of the same molecule?
**A.** 0.11%

**Q.** What about the “Assay (%) in comparison” value ([4]; 14 days, 70 °C, 11% RH) of the same molecule?
**A.** 99.3%

**Q.** And the “Crystal Form (XRPD vs unstressed time 0 sample)” value ([4]; 14 days, 70 °C, 11% RH)?
**A.** NC

**Q.** And the “Impurities (%)” value ([4]; 14 days, 70 °C, 11% RH)?
**A.** 0.10%

**Q.** What about the “Assay (%) in comparison” value ([4]; 14 days, 70 °C, 75% RH) of the same molecule?
**A.** 100.9%

**Q.** What about the “Crystal Form (XRPD vs unstressed time 0 sample)” value ([4]; 14 days, 70 °C, 75% RH) of the same molecule?
**A.** NC

**Q.** And the “Impurities (%)” value ([4]; 14 days, 70 °C, 75% RH)?
**A.** 0.11%

**Q.** What about the “stability under the testing conditions” value ([4]; accelerated stability study, conditions of Table 4) of the same molecule?
**A.** chemically and physically stable

**Q.** What about the “Impurities (%)” value ([4]; time point 0 days, unstressed sample) of the same molecule?
**A.** 0.09%

**Q.** And the solubility in anisole [2]?
**A.** almost no solubility

Source: patent US20230212193A1, “CRYSTALLINE RET INHIBITOR” (Loxo Oncology, Inc., priority 2020, published 2023)
